Measured values as given in patent EP0326331B1, “Substituted quinolines and cinnolines” (Dow AgroSciences LLC, priority 1988, dated 1989).

Assays:
Assay type in all cases: in vivo
[1] = test system: southern armyworm (Spodopetra eridania Cramer); assay: Mite/insect screen, SAW; conditions: percent mortality, foliar spray on squash; for mortality at 200 ppm / mortality at 400 ppm: Spodoptera eridania, foliar, read-out: SAW RESULTS %; for mortality at 200 ppm: rate 200 ppm
Procedure, shortened: (§1)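 First, each compound was dissolved in an emulsifier-containing acetone/alcohol mixture and diluted with water. Next, leaves were sprayed until runoff and left to dry for an hour. For southern armyworm, two excised uninfested leaves went into a Petri dish with larvae; percent mortality followed standard exposure periods.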

[2] = test system: Twospotted spider mites (Tetranychus urticae Koch); assay: Mite/insect screen, SM; conditions: for mortality at 200 ppm / mortality at 400 ppm: Tetranychus urticae, foliar, read-out: SM RESULTS %; for mortality at 200 ppm: rate 200 ppm; for activity as miticides: summary statement in the description
Procedure, shortened: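 Read-out: percent mortality after standard exposure periods. Test solutions were water dilutions of compound dissolved in acetone/alcohol (50:50) with emulsifier blends; leaves were sprayed to runoff on both surfaces and air-dried for one hour before exposure.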

[3] = test system: Botrytis cinerea (gray mold); assay: Test 1 greenhouse foliar spray screen, gray mold on grape berries; conditions: Botrytis cinerea, foliar; Test 1, spray on grape berries; disease control rating at 400 ppm / 100 ppm
corn rootworm = assay: Mite/insect screen, CRW; conditions: percent mortality, read-out: CRW RESULTS %; for mortality at 12 ppm: CRW rate 12.00 ppm; for mortality at 24 ppm: CRW rate 24.00 ppm
Procedure, shortened: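 Stock in acetone:alcohol 1:1 + TOXIMUL R 23 g/L + TOXIMUL S 13 g/L; diluted with water to indicated concentrations; mortality (%) after standard exposure.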

[4] = test system: Venturia inaequalis (apple scab); assay: Test 1 greenhouse foliar spray screen, apple scab on apple seedling; conditions: Venturia inaequalis; Test 1, foliar spray on apple seedling; disease control rating at 400 ppm / 100 ppm; read-out: APPL SCAB
[5] = test system: Puccinia recondita tritici (leaf rust); assay: Test 1 greenhouse foliar spray screen, leaf rust on wheat; conditions: Puccinia recondita, foliar, Test 1, foliar spray on wheat; disease control rating at 400 ppm / 100 ppm
[6] = test system: Erysiphe graminis tritici (powdery mildew); assay: Test 1 greenhouse foliar spray screen, powdery mildew on wheat; conditions: Blumeria graminis, foliar, Test 1, foliar spray on wheat; disease control rating at 400 ppm / 100 ppm; read-out: POWD MDEW
[7] = test system: melon aphids (Aphis gossypii Glover); assay: Mite/insect screen, MA; conditions: Aphis gossypii, foliar, percent mortality, foliar spray on squash, read-out: MA RESULTS %; for mortality at 200 ppm: rate 200 ppm; for mortality at 400 ppm: rate 400 ppm
Procedure, shortened: as §1

[8] = test system: Pseudoperonospora cubensis (downy mildew); assay: Test 1 greenhouse foliar spray screen, downy mildew on squash; conditions: Pseudoperonospora cubensis, foliar, Test 1, foliar spray on squash; disease control rating at 400 ppm / 100 ppm; read-out: DOWN MDEW
[9] = test system: Cercospora beticola (leaf spot); assay: Test 1 greenhouse foliar spray screen, leaf spot on sugar beet; conditions: Cercospora beticola; Test 1, foliar spray on sugar beet; disease control rating at 400 ppm / 100 ppm
[10] = test system: Septoria tritici (leaf blotch); assay: Test 1 greenhouse foliar spray screen, leaf blotch on wheat; conditions: Zymoseptoria tritici; Test 1, foliar spray on wheat; disease control rating at 400 ppm / 100 ppm; read-out: LEAF BLOT
[11] = test system: Pyricularia oryzae (rice blast); assay: whole plant or invertebrate; conditions: for pest or weed control at 400 ppm: Pyricularia oryzae, foliar, read-out: RICE BLAST, Test 1, foliar spray on rice, disease control rating at 400 ppm / 100 ppm
[12] = percent mortality, foliar spray on squash
[13] = percent mortality, rate 400 ppm, foliar spray on squash

SMILES | mortality at 200 ppm [1] | mortality at 400 ppm ([1]; rate 400 ppm) | mortality at 200 ppm [2, 12] | mortality at 400 ppm [2, 13] | activity as miticides [2] | pest or weed control at 400 ppm [3] | mortality at 12 ppm (corn rootworm) | mortality at 24 ppm (corn rootworm) | pest or weed control at 400 ppm [4] | pest or weed control at 400 ppm [5] | pest or weed control at 400 ppm [6] | mortality at 200 ppm [7] | mortality at 400 ppm [7] | pest or weed control at 400 ppm [8] | pest or weed control at 400 ppm [9] | pest or weed control at 400 ppm [10] | pest or weed control at 400 ppm [11] | SAW RESULTS % ([1]; rate 400 ppm) | SM RESULTS % [2, 13] | activity against rice blast ([11]; summary statement in the description)
Fc1ccc2c(OCCc3ccc(-c4ccccc4)cc3)ccnc2c1 [Example 233, 4-[2-(1,1'-biphenyl)-4-ylethoxy]-7-fluoroquinoline] | 0% | 0% | 100% | 80% | particularly excellent activity | 0 to 19% | 0% | 0% | 0 to 19% | 90 to 100% | 20 to 89% | 50% | 80% | 20 to 89% | 0 to 19% | 20 to 89% | 90 to 100% | – | – | –
Fc1ccc2c(OCCc3ccc(Cl)cc3)ccnc2c1 [Example 234, 4-[2-(4-chlorophenyl)ethoxy]-7-fluoroquinoline] | 60% | 0% | 50% | 30% | – | 0 to 19% | 0% | 0% | 0 to 19% | 90 to 100% | 20 to 89% | 50% | 100% | 20 to 89% | 20 to 89% | 20 to 89% | 20 to 89% | – | – | –
Cc1ccc(CCOc2ccnc3cc(F)ccc23)cc1 [Example 235, 7-fluoro-4-[2-(4-methylphenyl)ethoxy]quinoline] | 80% | 0% | 0% | 0% | – | 0 to 19% | 0% | 0% | 0 to 19% | 90 to 100% | 20 to 89% | 0% | 50% | 20 to 89% | 0 to 19% | 20 to 89% | 90 to 100% | – | – | –
Fc1ccc(CCOc2ccnc3cc(Cl)ccc23)cc1 [Example 236, 7-chloro-4-[2-(4-fluorophenyl)ethoxy]quinoline] | 0% | 0% | 0% | 0% | – | 0 to 19% | 0% | – | 0 to 19% | 20 to 89% | 90 to 100% | 0% | – | 0 to 19% | 0 to 19% | 0 to 19% | 0 to 19% | 0% | 0% | –
Fc1cccc2c(OCCc3cccc4ccccc34)ccnc12 [Example 244, 8-fluoro-4-[2-(1-naphthyl)ethoxy]quinoline] | 0% | – | 0% | – | – | 0 to 19% | 0% | – | 0 to 19% | 20 to 89% | 20 to 89% | 40% | – | 20 to 89% | 0 to 19% | 20 to 89% | 90 to 100% | – | – | –
c1csc(CCOc2ccnc3ccccc23)c1 [Example 245, 4-[2-(2-thienyl)ethoxy]quinoline] | 0% | – | 0% | – | – | 0 to 19% | 0% | – | 0 to 19% | 90 to 100% | 20 to 89% | 0% | – | 90 to 100% | 0 to 19% | 0 to 19% | 90 to 100% | – | – | –
Fc1cccc2c(OCCc3cccs3)ccnc12 [Example 246, 8-fluoro-4-[2-(2-thienyl)ethoxy]quinoline] | 0% | – | 0% | – | – | 0 to 19% | 0% | – | 90 to 100% | 90 to 100% | 90 to 100% | 0% | – | 90 to 100% | 20 to 89% | 90 to 100% | 90 to 100% | – | – | –
Fc1cccc2c(OCCc3ccc4ccccc4c3)ccnc12 [Example 247, 8-fluoro-4-[2-(2-naphthyl)ethoxy]quinoline] | 20% | 50% | 90% | 0% | particularly excellent activity | 0 to 19% | 0% | 0% | 0 to 19% | 90 to 100% | 90 to 100% | 0% | 0% | 20 to 89% | 0 to 19% | 90 to 100% | 90 to 100% | – | – | particularly excellent activity
Cc1ccc(CCOc2ccnc3c(OCCc4ccc(C)cc4)cccc23)cc1 [Example 251, 4,8-bis[2-(4-methylphenyl)ethoxy]quinoline] | 0% | – | 0% | – | – | 0 to 19% | 0% | – | 0 to 19% | 0 to 19% | 0 to 19% | 0% | – | 20 to 89% | 0 to 19% | 0 to 19% | 20 to 89% | – | – | –
c1ccc(CCCc2ccnc3ccccc23)cc1 [Example 252, 4-(3-phenylpropyl)quinoline] | 0% | 0% | 90% | 90% | – | 0 to 19% | 0% | 0% | 20 to 89% | 90 to 100% | 90 to 100% | 100% | 100% | 90 to 100% | 0 to 19% | 20 to 89% | 90 to 100% | – | – | –
Fc1cccc2c(CCCc3ccccc3)ccnc12 [Example 253, 8-fluoro-4-(3-phenylpropyl)quinoline] | 0% | 0% | 100% | 100% | particularly excellent activity | 0 to 19% | 0% | 0% | 90 to 100% | 90 to 100% | 90 to 100% | 90% | 100% | 90 to 100% | 20 to 89% | 20 to 89% | 90 to 100% | – | – | –
Cc1ccc(CCCc2ccnc3c(F)cccc23)cc1 [Example 258, 8-fluoro-4-[3-(4-methylphenyl)propyl]quinoline] | – | 0% | – | 90% | particularly excellent activity | 0 to 19% | – | 0% | 0 to 19% | 90 to 100% | 90 to 100% | – | 100% | 90 to 100% | 20 to 89% | 20 to 89% | 90 to 100% | – | – | –
